This note sets out measurements from ChEMBL document CHEMBL5344418, “Recent developments in antimalarial activities of 4-aminoquinoline derivatives” (Eur J Med Chem, 2023).

Where only a bound is given, the exact number is not on record here.

Data set [1] can be described thus: Cytotoxicity against African green monkey Vero cells by MTT assay. Conditions: African green monkey (Chlorocebus sabaeus). It counts as toxicity, cell-based. Background: Tetrazolium assays rely on reduction of a dye to a coloured formazan, in cell work by metabolically active cells.
For data set [2], the system named is Plasmodium falciparum. Kind of data set: Antiplasmodial activity against Plasmodium falciparum NF54. It counts as functional, organism-based.
Data set [3] deals with Plasmodium falciparum. The data set can be described thus: Antimalarial activity against Plasmodium falciparum Dd2 assessed as reduction in parasitic growth. In kind it is functional, organism-based.
Data set [4] has as its system Plasmodium falciparum. The data set can be described thus: Antiplasmodial activity against Plasmodium falciparum 3D7 assessed as inhibition of parasitic growth. It counts as functional, organism-based.
For data set [5], the system named is Plasmodium falciparum. The data set can be described thus: Antiplasmodial activity against Plasmodium falciparum Dd2 assessed as reduction in parasitic growth incubated for 48 hrs by SYBR Green staining based fluorescence analysis. It counts as functional, organism-based. Conditions: Dd2, 48 h.
Data set [6] has as its system Plasmodium falciparum. Kind of data set: Antimalarial activity against Plasmodium falciparum assessed as parasitic growth inhibition. It counts as functional, organism-based.
In a further data set the test system is HepG2. Kind of data set: Cytotoxicity against human HepG2 cells assessed as reduction in cell viability incubated for 24 hrs by MTT assay. In kind it is functional.
Data set [7] relates to Plasmodium falciparum. The data set can be described thus: Antimalarial activity against chloroquine-sensitive Plasmodium falciparum 3D7 assessed as reduction in parasite growth incubated for 48 hrs by SYBR green assay. In kind it is functional, organism-based. The settings on record: 3D7, 48 h.
In data set [8] the test system is Plasmodium falciparum. Kind of data set: Antimalarial activity against multi-drug resistant Plasmodium falciparum K1 assessed as reduction in parasite growth incubated for 48 hrs by SYBR green assay. It counts as functional, organism-based. Conditions: K1, 48 h.
Data set [9] in a line: Cytotoxicity against African green monkey Vero cells assessed as reduction in cell viability measured after 24 hrs. The settings on record: African green monkey (Chlorocebus sabaeus). In kind it is toxicity, cell-based.
Data set [10] concerns Plasmodium falciparum. Kind of data set: Antiplasmodial activity against chloroquine-sensitive Plasmodium falciparum 3D7 assessed as parasitic growth inhibition incubated for 72 hrs by SYBR Green staining based fluorescence analysis. In kind it is functional, organism-based. The settings on record: 3D7, 72 h.
Data set [11] deals with Plasmodium falciparum. The data set can be described thus: Antiplasmodial activity against chloroquine-resistant Plasmodium falciparum W2 assessed as parasitic growth inhibition incubated for 72 hrs by SYBR Green staining based fluorescence analysis. It counts as functional, organism-based. Conditions: W2, 72 h.
The subject of data set [12] is Plasmodium falciparum. The data set can be described thus: Antimalarial activity against Plasmodium falciparum K1 assessed as reduction in parasitic growth incubated for 48 hrs by Giemsa-staining counting based microscopic analysis. It counts as functional, organism-based. The settings on record: K1, 48 h.
For data set [13], the system named is Plasmodium falciparum. The data set can be described thus: Antimalarial activity against Plasmodium falciparum 3D7 assessed as reduction in parasite growth incubated for 48 hrs by Giemsa-staining counting based microscopic analysis. In kind it is functional, organism-based. The settings on record: 3D7, 48 h.
A short description of data set [14]: Cytotoxicity against African green monkey Vero cells assessed as reduction in cell viability incubated for 48 hrs by MTT assay. It counts as toxicity, cell-based. Conditions: chlorocebus sabaeus.
Data set [15] relates to Plasmodium falciparum. The data set can be described thus: Antimalarial activity against Plasmodium falciparum assessed as reduction in parasite growth incubated for 48 hrs by Giemsa staining based analysis. In kind it is functional, organism-based.
In data set [16] the test system is Plasmodium falciparum. Kind of data set: Antiplasmodial activity against Plasmodium falciparum 3D7 assessed as reduction in parasite growth by Lactate dehydrogenase assay. It counts as functional, organism-based.
The subject of data set [17] is Plasmodium falciparum. The data set can be described thus: Antiplasmodial activity against Plasmodium falciparum Dd2 infected in human Erythrocyte measured after 72 hrs by SYBR green fluorescence dye based microplate reader analysis. It counts as functional, organism-based.
In data set [18] the test system is Plasmodium falciparum. Kind of data set: Antiplasmodial activity against chloroquine-sensitive Plasmodium falciparum 3D7 infected in human erythrocyte incubated for 72 hrs by SYBR green I staining based fluorescence assay. In kind it is functional, organism-based. Conditions: 3D7, Erythrocyte.
The subject of another data set is Plasmodium berghei. Kind of data set: Antimalarial activity against Plasmodium berghei ANKA. It counts as functional, organism-based.
The test system of data set [19] is Plasmodium falciparum. The data set can be described thus: Antimalarial activity against chloroquine-sensitive Plasmodium falciparum NF54 assessed as reduction in cell growth. It counts as functional, organism-based.

The term IC50 denotes the midpoint of a concentration-inhibition curve. In general, EC50 refers to the concentration giving half of the maximal effect. What is called CC50 is the concentration giving 50% cytotoxicity.

As for `CCCCC1(CCCC)c2ccccc2-c2cc(Cl)c(NC(=O)CNCCCNc3ccnc4cc(Cl)ccc34)cc21`, the figures for the IC50 (in data set [1]; with Plasmodium falciparum [2]) were 15900 nM and 139 nM, respectively.
As for `O=C(NCCCNc1ccnc2cc(Cl)ccc12)C(=O)Nc1cc2c(cc1Cl)-c1ccccc1C2`, the values for the IC50 (in [1]; in the data set on Plasmodium falciparum [2]) were 26000 nM and 437 nM, respectively.
As for `N#Cc1ccc2c(CNCCCNc3ccnc4cc(Cl)ccc34)csc2c1`, the concentration for half-maximal inhibition (IC50) with Plasmodium falciparum [3] worked out at 18.6 nM; in the data set with Plasmodium falciparum [4] it was 50.2 nM.
For `O=C(CNCCCNc1ccnc2cc(Cl)ccc12)Nc1cc2c(cc1Cl)-c1ccccc1C21CCCC1`, the concentration for half-maximal inhibition (IC50) amounted to 12500 nM in [1] and 204 nM in the data set on Plasmodium falciparum [2].
On to `CC1(C)c2ccccc2-c2cc(Cl)c(NC(=O)CNCCCNc3ccnc4cc(Cl)ccc34)cc21`, for which the IC50 came to 6330 nM in data set [1] and 270 nM with Plasmodium falciparum [2].
In the case of `COc1ccc2nc(/C=C/c3ccncc3)cc(N3CCCCC3)c2c1`, the IC50 with Plasmodium falciparum [5] came out at 4900 nM.
On to `Clc1ccc2c(NNc3cccnc3)ccnc2c1`, for which the IC50 in the data set with Plasmodium falciparum [6] was 2210 nM.
Still for that read-out and setting: as for `Clc1ccc2c(Nc3cccnc3)ccnc2c1`, the figure is 4350 nM.
As for `CCN(CC)CC#CCNc1ccnc2cc(Cl)ccc12`, the MLD50 with HepG2 is 1481 µM. The half-inhibitory concentration (IC50) with Plasmodium falciparum [7] amounted to 46 nM; in the data set with Plasmodium falciparum [8], 50 nM.
`CN(CCCCCCCCNc1ccnc2ccccc12)Cc1ccc(-c2ccc(-c3ccc(C#N)cc3)s2)cc1`: the IC50 with Plasmodium falciparum [3] amounted to 71.5 nM; in the data set on Plasmodium falciparum [4], 120 nM.
Consider `OB1OCc2ccc(OCc3cn(CCNc4ccnc5cc(Cl)ccc45)nn3)cc21`, for which the IC50 at 24 h in [9] was greater than 100000 nM. In addition, the IC50 with Plasmodium falciparum [10] came out at 4150 nM; in the data set with Plasmodium falciparum [11] it was 3780 nM.
As for `CCOC(=O)c1nn(CCNc2ccnc3cc(Cl)ccc23)c2c1C(C(C)C)C(C#N)=C(N)O2` (stereo not given), the EC50 was found to be 300 nM with Plasmodium falciparum [12] and 3390 nM with Plasmodium falciparum [13]. In addition, the CC50 at 48 h in [14] was 86100 nM.
Turning to `C/C(=N\C(=S)NNc1ccnc2cc(Cl)ccc12)c1ccc2ccccc2c1`, the IC50 in the data set with Plasmodium falciparum [15] stood at 79800 nM.
For the compound `COc1ccc2nc(/C=C/c3ccncc3)cc(Nc3ccccc3)c2c1`, the IC50 with Plasmodium falciparum [5] turned out to be 965 nM.
Take `COc1ccc2nc(/C=C/c3ccncc3)cc(N3CCOCC3)c2c1`: the half-maximal inhibitory concentration (IC50) in the data set with Plasmodium falciparum [5] was greater than 10000 nM.
For the compound `CC1=NC(=S)N(Nc2ccnc3cc(Cl)ccc23)C(=O)C1`, the IC50 in the data set on Plasmodium falciparum [15] was 11900 nM.
With `O=C(O)/C=C/c1cccc(Nc2ccnc3cc(Cl)ccc23)c1`, the IC50 with Plasmodium falciparum [16] came out at 9630 nM.
For `C[C@H]1[C@H](OC(=O)CCC(=O)NCCNc2ccnc3cc(Cl)ccc23)O[C@@H]2O[C@@]3(C)CC[C@H]4[C@H](C)CC[C@@H]1[C@@]24OO3`, the concentration giving a half-maximal response (EC50) came to 1 nM with Plasmodium falciparum [17] and 2.7 nM with Plasmodium falciparum [18].
`Clc1ccc2c(Nc3nc[nH]n3)ccnc2c1`: in the data set on Plasmodium falciparum [15], the IC50 was determined as 42600 nM.
With `COc1ccc2nc(/C=C/c3ccncc3)cc(NCCN(C)C)c2c1`, the IC50 in the data set on Plasmodium falciparum [5] amounted to 33 nM.
As to `COc1ccc2nc(/C=C/c3ccncc3)cc(N3CCN(CCO)CC3)c2c1`, in the data set on Plasmodium falciparum [5], the concentration for half-maximal inhibition (IC50) is greater than 10000 nM.
Take `NCCNc1ccnc2cc(Cl)ccc12`: in the data set on HepG2, the MLD50 was determined as 179 µM. For the same compound, the values for the 50% inhibitory concentration (IC50) with Plasmodium falciparum [7] and in the data set with Plasmodium falciparum [8] were 273 nM and 218 nM, respectively.
As for `CCOC(=O)c1nn(CCNc2ccnc3cc(Cl)ccc23)c2c1C(c1ccc(CC)cc1)C(C#N)=C(N)O2` (stereo not given), the concentration giving a half-maximal response (EC50) in the data set with Plasmodium falciparum [12] amounted to 20 nM; in the data set on Plasmodium falciparum [13], 13 nM. Also, the CC50 at 48 h in data set [14] was 17600 nM.
On to `O=C(CNCCCNc1ccnc2cc(Cl)ccc12)Nc1cc2c(cc1Cl)-c1ccccc1C2`, for which the IC50 worked out at 11200 nM in data set [1] and 346 nM with Plasmodium falciparum [2].
On to `Nc1ccccc1Nc1ccnc2cc(Cl)ccc12`, for which, in the data set on Plasmodium falciparum [15], the IC50 is 35300 nM.
With `Fc1ccc2scc(-c3ccc(CNCCCNc4ccnc5ccccc45)cc3)c2c1`, the IC50 is 73.3 nM with Plasmodium falciparum [3] and 18.8 nM with Plasmodium falciparum [4].
With `COc1ccc2c(c1)C[C@H](Nc1ccnc3cc(Cl)ccc13)C2`, the IC50 with Plasmodium berghei stood at 590 nM.
Take `N#Cc1ccc(-c2ccc(-c3ccc(CNCCCCCCCCNc4ccnc5cc(Cl)ccc45)cc3)s2)cc1`: the IC50 with Plasmodium falciparum [3] came to 174 nM; in the data set on Plasmodium falciparum [4], 97.3 nM.
As for `C#Cc1ccc(-c2cn(CCNc3ccnc4cc(Cl)ccc34)nn2)cc1F`, in the data set on Plasmodium falciparum [19], the IC50 was determined as 150 nM.
The compound `COc1cc2c(cc1OC)CC(Nc1ccnc3cc(Cl)ccc13)C2` showed an IC50 in the data set on Plasmodium berghei of 390 nM.
